Where a name gives a salt, the structure may show the parent alone.
Target: T1, NLRP3 inflammasome (Homo sapiens, UniProt Q96P20)
T1 construct: endogenous in cells; host or cells: THP-1 cells, PMA-differentiated and stimulated with LPS and ATP
Assay: THP-1 IL-1β production inhibition test
Type: cell-based
Details: PMA-treated THP-1 cells, LPS 50 ng/ml + ATP 5 mM, 2 hours, IL-1β in supernatant by ELISA
Method: Test Example 1: THP-1 IL-1β Production Inhibition Test
PMA (phorbol myristate acetate, SIGMA, P1585) was added to THP-1 cells in an amount of 50 ng/mL to culture the cells for 2 days at 37° C. The culture medium was replaced with a serum-free RPMI-1640 medium, and a compound with a known concentration was added thereto to culture the cells at 37° C. for 15 minutes. LPS (Lipopolysaccharide, SIMGA, L2880) and ATP (Adenosine triphosphate, SIGMA, A2383) were added so that final concentrations become 50 ng/ml and 5 mM, respectively, followed by culturing at 37° C. for 2 hours. The supernatants were collected to measure the concentrations of IL-1β by ELISA (DuoSet ELISA human IL-1β, R&D Systems, DY201). The IL-1β concentrations were plotted against log concentrations of test compounds, and an IC50 value was calculated by sigmoid Emax model nonlinear regression analysis.
Example compounds were confirmed to inhibit NLRP3 inflammasome activation and IL-1β production.

T1 sequence (Q96P20 whole entry): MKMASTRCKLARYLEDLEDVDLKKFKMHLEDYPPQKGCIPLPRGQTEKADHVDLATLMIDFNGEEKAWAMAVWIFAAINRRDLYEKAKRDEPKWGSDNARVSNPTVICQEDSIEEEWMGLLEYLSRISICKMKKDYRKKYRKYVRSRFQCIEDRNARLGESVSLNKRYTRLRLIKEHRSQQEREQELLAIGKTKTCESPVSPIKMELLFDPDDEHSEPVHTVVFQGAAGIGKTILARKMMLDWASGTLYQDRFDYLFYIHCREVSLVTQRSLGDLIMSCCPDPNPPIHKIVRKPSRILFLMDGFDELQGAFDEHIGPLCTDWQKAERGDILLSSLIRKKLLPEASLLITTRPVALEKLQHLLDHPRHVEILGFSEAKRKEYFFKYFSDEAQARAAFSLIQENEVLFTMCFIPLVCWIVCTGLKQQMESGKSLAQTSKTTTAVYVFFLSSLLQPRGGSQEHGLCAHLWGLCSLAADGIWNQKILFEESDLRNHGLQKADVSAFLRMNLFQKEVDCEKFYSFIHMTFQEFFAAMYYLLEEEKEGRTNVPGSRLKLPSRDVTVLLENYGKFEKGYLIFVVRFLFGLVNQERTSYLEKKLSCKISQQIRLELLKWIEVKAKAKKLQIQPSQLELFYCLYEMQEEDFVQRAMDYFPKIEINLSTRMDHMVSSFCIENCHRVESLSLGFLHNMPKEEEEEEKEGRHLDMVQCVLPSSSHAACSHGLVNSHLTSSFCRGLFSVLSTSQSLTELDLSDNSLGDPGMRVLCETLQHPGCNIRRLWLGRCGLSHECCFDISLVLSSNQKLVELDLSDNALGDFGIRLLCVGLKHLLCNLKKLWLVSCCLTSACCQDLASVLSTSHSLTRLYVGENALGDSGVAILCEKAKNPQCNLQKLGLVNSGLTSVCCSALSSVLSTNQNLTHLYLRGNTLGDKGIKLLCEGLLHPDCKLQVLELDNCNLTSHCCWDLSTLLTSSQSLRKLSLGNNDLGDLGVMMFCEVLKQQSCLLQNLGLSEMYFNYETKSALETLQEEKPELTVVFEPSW

IC50 [nM]	SMILES
44	Cc1c(-c2ccc(C(F)(F)F)cc2O)nnc2c1CCN2[C@H]1C[C@@](C)(O)C1 [Example 35, 2-{7-[(1s,3s)-3-hydroxy-3-methylcyclobutyl]-4-methyl-6,7-dihydro-5H-pyrrolo[2,3-c]pyridazin-3-yl}-5-(trifluoromethyl)phenol]
12	Cc1c(-c2ccc(C(F)(F)F)cc2O)nnc2c1CCCN2[C@@H]1CCCN(C2CC2)C1 [Example 31, 2-{8-[(3R)-1-cyclopropylpiperidin-3-yl]-4-methyl-5,6,7,8-tetrahydropyrido[2,3-c]pyridazin-3-yl}-5-(trifluoromethyl)phenol]
780	Cc1c(-c2ccc(C(F)(F)F)cc2O)nnc2c1CCCN2[C@H]1CNC(=O)C1 [Example 15]
42	Cc1c(-c2ccc(C(F)(F)F)cc2O)nnc2c1CCCN2[C@@H]1CCCN(CCO)C1 [Example 27, 2-{8-[(3R)-1-(2-hydroxyethyl)piperidin-3-yl]-4-methyl-5,6,7,8-tetrahydropyrid[2,3-c]pyridazin-3-yl}-5-(trifluoromethyl)phenol dihydrochloride]

From US20260209233A1, “ANNULATED PYRIDAZINE DERIVATIVE” (Tenvie Therapeutics, Inc., priority 2022, published 2026)
